pIC50: −log10 of the molar value. Where “and” joins values, the source holds several entries; their conditions need not be identical. Identical values can stand only once. Like-named read-outs stand apart in the source and are kept apart here.
Tests used:
Format in all cases: biochemical
Lck = biological target: T1, Lck (Homo sapiens, UniProt P06239); assay: Kinase inhibition assay (33P transfer), Lck; details: read-out: Lck-1
T1 construct: Kinases are expressed as either kinase domains or full length constructs; made in house
T1 sequence (P06239 whole entry, species assumed, the tested form may be a part): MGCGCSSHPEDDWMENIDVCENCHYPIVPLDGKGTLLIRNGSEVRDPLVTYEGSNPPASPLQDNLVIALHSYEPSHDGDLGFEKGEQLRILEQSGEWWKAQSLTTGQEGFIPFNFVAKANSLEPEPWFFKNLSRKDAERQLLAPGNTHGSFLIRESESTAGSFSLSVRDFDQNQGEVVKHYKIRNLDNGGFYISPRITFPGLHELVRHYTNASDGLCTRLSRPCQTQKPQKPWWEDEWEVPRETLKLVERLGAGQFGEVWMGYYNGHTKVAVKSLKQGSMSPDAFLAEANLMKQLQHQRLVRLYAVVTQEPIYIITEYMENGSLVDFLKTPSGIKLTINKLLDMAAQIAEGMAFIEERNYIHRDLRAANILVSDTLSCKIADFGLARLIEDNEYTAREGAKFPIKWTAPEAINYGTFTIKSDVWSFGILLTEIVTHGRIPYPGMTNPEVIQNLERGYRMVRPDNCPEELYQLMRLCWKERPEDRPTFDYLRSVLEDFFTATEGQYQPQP
Outline: (§1)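 Kinase domain or full-length constructs, GST- or polyHis-tagged, expressed in E. coli or baculovirus-High Five cells, sometimes with regulatory polypeptides. Activity measured as 33PO4 transfer from ATP to plate-bound poly(Glu,Tyr) 4:1 or poly(Arg,Ser) 3:1; after incubation, plates washed with 0.5% phosphoric acid and counted by liquid scintillation.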

Lyn = biological target: T2, Lyn (Homo sapiens, UniProt P07948); assay: Kinase inhibition assay (33P transfer), Lyn; details: Table 6, Lyn-1 kinase inhibition class
T2 construct: Kinases are expressed as either kinase domains or full length constructs; made in house
T2 sequence (P07948 whole entry, species assumed, the tested form may be a part): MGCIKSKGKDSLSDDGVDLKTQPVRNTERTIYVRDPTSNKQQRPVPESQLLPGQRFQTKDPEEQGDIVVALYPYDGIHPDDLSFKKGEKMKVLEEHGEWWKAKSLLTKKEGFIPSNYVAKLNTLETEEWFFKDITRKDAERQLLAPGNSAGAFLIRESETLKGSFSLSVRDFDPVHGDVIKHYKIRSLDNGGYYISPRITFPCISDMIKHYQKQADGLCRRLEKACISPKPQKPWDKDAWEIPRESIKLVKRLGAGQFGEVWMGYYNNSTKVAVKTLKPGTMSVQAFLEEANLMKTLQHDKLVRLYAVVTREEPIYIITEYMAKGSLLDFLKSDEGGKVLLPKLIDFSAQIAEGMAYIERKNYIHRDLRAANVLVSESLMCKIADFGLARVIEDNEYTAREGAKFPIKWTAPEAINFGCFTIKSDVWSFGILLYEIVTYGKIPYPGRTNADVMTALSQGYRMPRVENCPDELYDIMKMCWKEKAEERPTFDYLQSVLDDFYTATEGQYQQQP
Outline: (§2)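 Steps: coat wells with poly(Glu,Tyr) 4:1 or poly(Arg,Ser) 3:1; add purified kinase, [33P]ATP and inhibitor; incubate; wash with 0.5% phosphoric acid; add liquid scintillant; count. IC50 corresponds to half-maximal reduction of bound 33P.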

Src = biological target: T3, Src (Homo sapiens, UniProt P12931); assay: Kinase inhibition assay (33P transfer), Src; details: Table 6, Src-1 kinase inhibition class
T3 construct: Kinases are expressed as either kinase domains or full length constructs; made in house
Outline: as §2

Fyn = biological target: T4, Fyn (Homo sapiens, UniProt P06241); assay: Kinase inhibition assay (33P transfer), Fyn; details: read-out: Fyn-1
T4 construct: Kinases are expressed as either kinase domains or full length constructs; made in house
Outline: as §2

Zap-70 = biological target: T5, Zap-70 (Homo sapiens, UniProt P43403); assay: Kinase inhibition assay (33P transfer), Zap-70; details: read-out: Zap-1
T5 construct: Kinases are expressed as either kinase domains or full length constructs; made in house
T5 sequence (P43403 1-619): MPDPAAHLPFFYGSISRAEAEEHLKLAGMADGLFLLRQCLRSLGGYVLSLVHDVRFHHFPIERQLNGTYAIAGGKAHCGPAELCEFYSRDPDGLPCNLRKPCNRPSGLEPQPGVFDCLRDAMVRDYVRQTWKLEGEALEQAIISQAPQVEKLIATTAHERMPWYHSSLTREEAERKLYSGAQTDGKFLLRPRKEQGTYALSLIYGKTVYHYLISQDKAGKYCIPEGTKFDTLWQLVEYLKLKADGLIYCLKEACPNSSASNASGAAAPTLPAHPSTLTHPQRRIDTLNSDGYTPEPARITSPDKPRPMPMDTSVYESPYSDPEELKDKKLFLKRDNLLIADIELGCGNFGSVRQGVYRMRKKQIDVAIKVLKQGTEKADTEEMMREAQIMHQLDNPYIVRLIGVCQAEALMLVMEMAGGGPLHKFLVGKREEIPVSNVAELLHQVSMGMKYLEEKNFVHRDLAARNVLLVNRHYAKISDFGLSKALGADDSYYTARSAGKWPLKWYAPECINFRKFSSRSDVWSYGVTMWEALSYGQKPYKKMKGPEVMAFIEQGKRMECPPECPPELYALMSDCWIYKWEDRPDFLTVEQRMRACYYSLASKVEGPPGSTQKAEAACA
Outline: as §1

Itk = biological target: T6, Itk (Homo sapiens, UniProt Q08881); assay: Kinase inhibition assay (33P transfer), Itk; details: read-out: Itk-1
T6 construct: Kinases are expressed as either kinase domains or full length constructs; made in house
T6 sequence (Q08881 1-620): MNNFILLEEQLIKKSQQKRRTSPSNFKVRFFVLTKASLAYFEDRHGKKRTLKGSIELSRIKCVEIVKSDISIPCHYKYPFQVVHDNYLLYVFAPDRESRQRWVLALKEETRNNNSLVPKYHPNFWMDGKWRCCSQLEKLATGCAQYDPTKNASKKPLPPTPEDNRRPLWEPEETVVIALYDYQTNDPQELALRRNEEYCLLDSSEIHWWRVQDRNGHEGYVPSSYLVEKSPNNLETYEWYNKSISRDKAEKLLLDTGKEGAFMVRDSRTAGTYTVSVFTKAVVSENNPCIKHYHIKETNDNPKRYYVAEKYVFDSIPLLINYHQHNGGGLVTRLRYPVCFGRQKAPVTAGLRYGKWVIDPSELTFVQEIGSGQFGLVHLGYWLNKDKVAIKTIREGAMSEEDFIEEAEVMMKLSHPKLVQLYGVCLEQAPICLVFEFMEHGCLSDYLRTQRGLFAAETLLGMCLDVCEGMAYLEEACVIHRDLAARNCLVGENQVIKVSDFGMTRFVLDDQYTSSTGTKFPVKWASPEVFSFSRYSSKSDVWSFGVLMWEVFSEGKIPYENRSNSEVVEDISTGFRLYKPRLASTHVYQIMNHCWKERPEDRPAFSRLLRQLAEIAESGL
Outline: as §2

EGFR = biological target: T7, EGFR (Homo sapiens, UniProt P00533); assay: Kinase inhibition assay (33P transfer), EGFR; details: read-out: EGFR-1
T7 construct: Kinases are expressed as either kinase domains or full length constructs; made in house
T7 sequence (P00533 25-1210, species assumed): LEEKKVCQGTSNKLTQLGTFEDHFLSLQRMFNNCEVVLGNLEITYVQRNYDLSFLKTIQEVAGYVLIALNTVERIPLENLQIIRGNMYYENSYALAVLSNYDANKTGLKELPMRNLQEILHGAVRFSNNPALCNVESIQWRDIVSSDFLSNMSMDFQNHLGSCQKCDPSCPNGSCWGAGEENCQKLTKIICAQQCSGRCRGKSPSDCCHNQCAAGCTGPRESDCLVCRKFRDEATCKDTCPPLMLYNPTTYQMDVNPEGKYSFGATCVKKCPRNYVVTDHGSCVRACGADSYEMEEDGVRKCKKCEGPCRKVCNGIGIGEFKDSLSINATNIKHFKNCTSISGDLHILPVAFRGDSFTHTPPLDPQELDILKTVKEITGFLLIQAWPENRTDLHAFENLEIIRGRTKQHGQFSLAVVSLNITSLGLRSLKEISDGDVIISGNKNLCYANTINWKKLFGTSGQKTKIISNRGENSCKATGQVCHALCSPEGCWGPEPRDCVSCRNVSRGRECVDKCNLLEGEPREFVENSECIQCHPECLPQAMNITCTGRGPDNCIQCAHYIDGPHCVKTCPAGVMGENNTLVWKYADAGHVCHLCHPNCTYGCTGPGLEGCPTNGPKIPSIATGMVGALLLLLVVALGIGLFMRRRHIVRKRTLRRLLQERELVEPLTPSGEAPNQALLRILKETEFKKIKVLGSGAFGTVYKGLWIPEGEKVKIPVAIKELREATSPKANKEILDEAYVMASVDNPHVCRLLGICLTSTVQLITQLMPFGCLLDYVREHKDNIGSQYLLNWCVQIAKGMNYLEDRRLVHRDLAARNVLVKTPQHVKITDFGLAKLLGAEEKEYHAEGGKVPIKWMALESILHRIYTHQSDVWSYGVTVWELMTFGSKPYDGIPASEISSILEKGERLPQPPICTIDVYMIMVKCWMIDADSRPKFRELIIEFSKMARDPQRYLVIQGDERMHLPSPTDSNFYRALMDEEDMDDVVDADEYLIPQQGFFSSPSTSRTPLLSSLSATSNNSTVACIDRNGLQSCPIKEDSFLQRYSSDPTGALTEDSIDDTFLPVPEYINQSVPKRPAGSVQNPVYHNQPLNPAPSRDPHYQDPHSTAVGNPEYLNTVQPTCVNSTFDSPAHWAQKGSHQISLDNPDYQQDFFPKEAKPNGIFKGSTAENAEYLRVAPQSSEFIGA
Outline: as §2

ErbB2 = biological target: T8, ErbB2 (Homo sapiens, UniProt P04626); assay: Kinase inhibition assay (33P transfer), ErbB2; details: read-out: ErbB2-2
T8 construct: Kinases are expressed as either kinase domains or full length constructs; made in house
Outline: as §2

Kdr = biological target: T9, Kdr (Homo sapiens, UniProt P35968); assay: Kinase inhibition assay (33P transfer), Kdr; details: read-out: KDR-1
T9 construct: Kinases are expressed as either kinase domains or full length constructs; made in house
Outline: as §1

Flt-1 = biological target: T10, Flt-1 (Homo sapiens, UniProt P17948); assay: Kinase inhibition assay (33P transfer), Flt-1
T10 construct: Kinases are expressed as either kinase domains or full length constructs; made in house
Outline: as §2

c-Met = biological target: T11, c-Met (Homo sapiens, UniProt P08581); assay: Kinase inhibition assay (33P transfer), c-Met; details: read-out: Met-1
T11 construct: Kinases are expressed as either kinase domains or full length constructs; made in house
Outline: as §2

AKT = biological target: T12, AKT (Homo sapiens, UniProt Q9Y243); assay: Kinase inhibition assay (33P transfer), AKT; details: read-out: AKT3-1
T12 construct: Kinases are expressed as either kinase domains or full length constructs; made in house
T12 sequence (Q9Y243 whole entry, the tested form may be a part): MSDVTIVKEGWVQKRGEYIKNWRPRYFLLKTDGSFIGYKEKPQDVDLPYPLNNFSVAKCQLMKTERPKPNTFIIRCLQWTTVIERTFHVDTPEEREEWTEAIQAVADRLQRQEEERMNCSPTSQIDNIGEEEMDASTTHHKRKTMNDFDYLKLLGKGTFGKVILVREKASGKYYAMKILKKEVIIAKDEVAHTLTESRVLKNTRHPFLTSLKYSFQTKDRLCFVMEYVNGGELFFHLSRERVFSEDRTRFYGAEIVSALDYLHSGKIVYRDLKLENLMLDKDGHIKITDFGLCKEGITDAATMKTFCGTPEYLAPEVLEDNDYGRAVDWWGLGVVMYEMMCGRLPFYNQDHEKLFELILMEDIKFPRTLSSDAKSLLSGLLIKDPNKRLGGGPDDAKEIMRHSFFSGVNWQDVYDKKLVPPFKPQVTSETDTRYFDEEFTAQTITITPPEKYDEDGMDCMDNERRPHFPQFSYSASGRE
Outline: as §1

IGFR-1 [1] = biological target: T13, IGFR-1 (Homo sapiens, UniProt P08069); assay: Kinase inhibition assay, IGFR-1 (Table 2); details: Table 2, kinase inhibition class
T13 construct: Kinases are expressed as either kinase domains or full length constructs; made in house
T13 sequence (P08069 31-1367): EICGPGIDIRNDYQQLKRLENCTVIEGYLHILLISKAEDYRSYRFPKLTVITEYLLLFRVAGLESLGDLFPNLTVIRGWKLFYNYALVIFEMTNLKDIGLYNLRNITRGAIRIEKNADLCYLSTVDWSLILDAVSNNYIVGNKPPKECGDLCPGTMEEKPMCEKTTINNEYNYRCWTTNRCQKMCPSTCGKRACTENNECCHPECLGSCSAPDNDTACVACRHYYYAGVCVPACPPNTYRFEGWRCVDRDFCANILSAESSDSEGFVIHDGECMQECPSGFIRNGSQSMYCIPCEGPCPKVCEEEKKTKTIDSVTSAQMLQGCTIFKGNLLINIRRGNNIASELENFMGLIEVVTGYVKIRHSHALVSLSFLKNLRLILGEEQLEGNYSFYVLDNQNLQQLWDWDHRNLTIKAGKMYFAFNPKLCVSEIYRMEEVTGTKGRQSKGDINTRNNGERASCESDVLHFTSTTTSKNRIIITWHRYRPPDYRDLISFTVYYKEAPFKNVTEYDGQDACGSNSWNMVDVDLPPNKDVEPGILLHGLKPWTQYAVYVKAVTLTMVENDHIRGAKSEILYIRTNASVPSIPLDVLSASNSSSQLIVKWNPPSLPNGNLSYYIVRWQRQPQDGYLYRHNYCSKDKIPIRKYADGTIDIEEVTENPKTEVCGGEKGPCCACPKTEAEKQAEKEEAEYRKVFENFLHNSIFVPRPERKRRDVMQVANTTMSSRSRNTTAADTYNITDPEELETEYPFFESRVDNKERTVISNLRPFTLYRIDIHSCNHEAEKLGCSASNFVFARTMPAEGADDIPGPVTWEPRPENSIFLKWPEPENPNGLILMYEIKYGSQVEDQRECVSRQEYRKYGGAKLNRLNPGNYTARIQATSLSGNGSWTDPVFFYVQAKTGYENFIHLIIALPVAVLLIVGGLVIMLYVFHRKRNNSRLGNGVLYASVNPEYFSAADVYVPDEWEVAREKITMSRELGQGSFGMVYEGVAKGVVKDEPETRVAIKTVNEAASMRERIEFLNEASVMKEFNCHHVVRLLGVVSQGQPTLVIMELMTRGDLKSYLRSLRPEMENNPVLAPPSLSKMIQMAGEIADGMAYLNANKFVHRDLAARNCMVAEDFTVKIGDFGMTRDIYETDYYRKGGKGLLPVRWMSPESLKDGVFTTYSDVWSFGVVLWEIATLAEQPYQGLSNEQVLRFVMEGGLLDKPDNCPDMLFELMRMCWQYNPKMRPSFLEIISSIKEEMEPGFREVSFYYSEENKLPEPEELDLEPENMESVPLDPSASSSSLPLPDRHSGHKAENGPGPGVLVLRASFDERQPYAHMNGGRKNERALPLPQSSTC

PDGFRB = biological target: T14, PDGFRB (Homo sapiens, UniProt P09619); assay: Kinase inhibition assay (33P transfer), PDGFRB; details: read-out: PDGFRB-1
T14 construct: Kinases are expressed as either kinase domains or full length constructs; made in house
T14 sequence (P09619 33-1106, species assumed): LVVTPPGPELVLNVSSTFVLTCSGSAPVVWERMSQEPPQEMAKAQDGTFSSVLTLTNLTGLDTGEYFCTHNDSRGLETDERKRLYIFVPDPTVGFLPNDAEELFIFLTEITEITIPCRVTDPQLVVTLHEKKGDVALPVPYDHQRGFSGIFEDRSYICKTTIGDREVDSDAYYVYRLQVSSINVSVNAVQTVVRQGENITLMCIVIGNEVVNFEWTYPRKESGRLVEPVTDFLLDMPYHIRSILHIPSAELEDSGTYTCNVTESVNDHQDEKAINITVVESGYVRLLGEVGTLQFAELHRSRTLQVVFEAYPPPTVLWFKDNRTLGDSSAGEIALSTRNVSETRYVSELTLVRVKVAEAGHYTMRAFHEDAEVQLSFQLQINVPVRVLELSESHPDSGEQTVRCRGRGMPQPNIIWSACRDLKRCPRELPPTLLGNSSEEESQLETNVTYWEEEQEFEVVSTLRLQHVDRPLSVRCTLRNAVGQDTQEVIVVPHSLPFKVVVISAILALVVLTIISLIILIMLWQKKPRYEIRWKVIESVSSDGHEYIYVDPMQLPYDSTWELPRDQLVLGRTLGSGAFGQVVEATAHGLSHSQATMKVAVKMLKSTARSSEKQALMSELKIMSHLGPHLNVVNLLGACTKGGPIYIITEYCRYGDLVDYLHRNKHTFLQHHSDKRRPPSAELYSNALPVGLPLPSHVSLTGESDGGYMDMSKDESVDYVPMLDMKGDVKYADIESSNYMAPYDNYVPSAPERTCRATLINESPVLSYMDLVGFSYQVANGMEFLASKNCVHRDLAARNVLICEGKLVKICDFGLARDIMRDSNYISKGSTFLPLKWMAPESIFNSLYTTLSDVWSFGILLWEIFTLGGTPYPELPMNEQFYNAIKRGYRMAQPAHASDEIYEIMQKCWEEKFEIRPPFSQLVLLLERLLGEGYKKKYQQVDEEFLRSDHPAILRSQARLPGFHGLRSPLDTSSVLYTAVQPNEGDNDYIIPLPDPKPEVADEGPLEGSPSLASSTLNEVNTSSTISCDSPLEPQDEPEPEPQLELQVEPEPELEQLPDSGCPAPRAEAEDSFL

ErbB4 = biological target: T15, ErbB4 (Homo sapiens, UniProt Q15303); assay: Kinase inhibition assay (33P transfer), ErbB4; details: read-out: ErbB4-1
T15 construct: Kinases are expressed as either kinase domains or full length constructs; made in house

Ret-1 = biological target: T16, Ret-1 (Homo sapiens, UniProt P07949); assay: Kinase inhibition assay (33P transfer), Ret; details: Table 6, Ret-1 kinase inhibition class
T16 construct: Kinases are expressed as either kinase domains or full length constructs; made in house

FGFR1 = biological target: T17, FGFR1 (Homo sapiens, UniProt P11362); assay: Kinase inhibition assay (33P transfer), FGFR1; details: read-out: FGFR1-1
T17 construct: Kinases are expressed as either kinase domains or full length constructs; made in house

IGFR-1 [2] = biological target: T13, IGFR-1; assay: Kinase inhibition assay (33P transfer), IGFR-1; details: Table 2, class symbols A-E
[3] = Table 2, kinase inhibition class

Structure (SMILES) | pIC50 (ErbB2) | pIC50 (PDGFRB) | pIC50 (Lck; Table 3, class symbols) | pIC50 (Zap-70; Table 3, class symbols) | pIC50 (Itk; Table 3, class symbols) | pIC50 (EGFR; Table 2, class symbols A-E) | pIC50 (Kdr; Table 3, class symbols) | pIC50 (c-Met; Table 2, class symbols A-E) | pIC50 (AKT; Table 2, class symbols A-E) | pIC50 (IGFR-1 [2]) | also measured
COc1cc(Nc2ncnc(-n3c(NC4CCCc5ccccc54)nc4ccccc43)n2)cc(OC)c1OC (centres unmarked) [Compound 587] | 5.34 to 6.12 and 5.17 to 5.34 | 5.34 to 6.12 and < 5.07 |  |  |  |  |  |  |  |  | pIC50 (Lck): 5.34 to 6.12; pIC50 (Lyn): 5.34 to 6.12; pIC50 (Src): < 5.07; pIC50 (Fyn): < 5.07; pIC50 (Zap-70): < 5.07; pIC50 (Itk): < 5.07; pIC50 (EGFR; [3]): 5.17 to 5.34 and 5.07 to 5.17; pIC50 (Kdr): > 6.12 and 5.34 to 6.12; pIC50 (Flt-1): 5.34 to 6.12; pIC50 (c-Met; [3]): 5.07 to 5.17 and < 5.07; pIC50 (AKT; [3]): < 5.07; pIC50 (IGFR-1 [1]): 5.07 to 5.17 and < 5.07; pIC50 (ErbB4): 5.34 to 6.12; pIC50 (Ret-1): > 6.12; pIC50 (FGFR1): > 6.12
COc1cc(Nc2ncnc(-n3c(NC4c5ccccc5CC4O)nc4ccccc43)n2)cc(OC)c1OC (centres unmarked) [Compound 579] | 5.18 to 5.34 and > 6.12 | < 5.07 |  |  |  |  |  |  |  |  | pIC50 (Lck): 5.34 to 6.12; pIC50 (Lyn): 5.18 to 5.34; pIC50 (Src): < 5.07; pIC50 (Fyn): < 5.07; pIC50 (Zap-70): < 5.07; pIC50 (Itk): < 5.07; pIC50 (Kdr): 5.34 to 6.12 and > 6.12; pIC50 (Flt-1): 5.34 to 6.12; pIC50 (c-Met; [3]): < 5.07; pIC50 (AKT; [3]): < 5.07; pIC50 (IGFR-1 [1]): < 5.07; pIC50 (ErbB4): > 6.12; pIC50 (Ret-1): > 6.12; pIC50 (FGFR1): 5.34 to 6.12
COc1ccc(Nc2ncnc(N(C)c3ccccc3)n2)cc1OC [Compound 797] | 5.15 to 5.93 | 4.98 to 5.15 | 5.15 to 5.93 | < 4.87 | < 4.87 | > 5.93 | 5.15 to 5.93 | 5.15 to 5.93 | < 4.87 | 4.98 to 5.15 | 

Continued, in another order:

pIC50 (ErbB2) | pIC50 (PDGFRB) | pIC50 (Lck; Table 3, class symbols) | pIC50 (Zap-70; Table 3, class symbols) | pIC50 (Itk; Table 3, class symbols) | pIC50 (EGFR; Table 2, class symbols A-E) | pIC50 (Kdr; Table 3, class symbols) | pIC50 (c-Met; Table 2, class symbols A-E) | pIC50 (AKT; Table 2, class symbols A-E) | pIC50 (IGFR-1 [2]) | Structure (SMILES) | also measured
< 4.97 | > 6.02 | < 4.97 | < 4.97 | < 4.97 | < 4.97 | > 6.02 | < 4.97 | < 4.97 | < 4.97 | c1ccc(Nc2ncccc2-c2ncnc(Nc3cccc(Cn4ccnn4)c3)n2)cc1 [Compound 1095] | 
4.91 to 5.02 | 5.18 to 5.96 | < 4.91 | < 4.91 | 5.02 to 5.18 | 5.18 to 5.96 | 4.91 to 5.02 | 4.91 to 5.02 | < 4.91 | < 4.91 | COc1ccc(Nc2ncnc(N(C)CCc3ccccn3)n2)cc1OC [Compound 869] | 
< 5.00 | > 6.05 | < 5.00 | 5.00 to 5.11 | < 5.00 | 5.11 to 5.28 | > 6.05 | < 5.00 | < 5.00 | < 5.00 | Fc1ccc(CNc2ncccc2-c2ncnc(Nc3cccc(Cn4ccnn4)c3)n2)cc1 [Compound 1102] | 
< 4.99 | > 6.04 | 5.09 to 5.26 | < 4.99 | 5.09 to 5.26 | 5.26 to 6.04 | > 6.04 | 5.09 to 5.26 | < 4.99 | < 4.99 | c1ccc(CNc2ncccc2-c2ncnc(Nc3cccc(Cn4ccnn4)c3)n2)cc1 [Compound 1101] | 
